Data as given in PubChem BioAssay AID2060883 (Molecular Pharmacology Branch, DTP, NCI, 2025).
Several values for one entry are separate records, joined by “and”; a condition that tells them apart may be missing. Equal values may be shown once.

System: 843782-103-R-J1-PDC complex spheroid viability
Assay: Anticancer human tumor 843782-103-R-J1-PDC patient-derived lung adenocarcinoma cell line growth inhibition [RAS]
Conditions: for IC50: curve of first compound; for viability, T/C: stronger effect = lower value
In short: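 Multi-cell-type spheroids: tumor cells plus HUVEC endothelial cells and mesenchymal stem cells. RAS-pathway inhibitors were combined with targeted agents, each dosed in half-log steps down from clinical Cmax, or from 10 microM when Cmax was unknown.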

[1] = second compound 0.0316 µM, first compound 0.0316 µM
[2] = second compound 0.0316 µM, first compound 0.1 µM
[3] = second compound 0.0316 µM, first compound 0.316 µM
[4] = second compound 0.0316 µM, first compound 1 µM
[5] = second compound 0.1 µM, first compound 0.0316 µM
[6] = second compound 0.1 µM, first compound 0.1 µM
[7] = second compound 0.1 µM, first compound 0.316 µM
[8] = second compound 0.1 µM, first compound 1 µM
[9] = second compound 0.316 µM, first compound 0.0316 µM
[10] = second compound 0.316 µM, first compound 0.1 µM
[11] = second compound 0.316 µM, first compound 0.316 µM
[12] = second compound 0.316 µM, first compound 1 µM
[13] = second compound 1 µM, first compound 0.0316 µM
[14] = second compound 1 µM, first compound 0.1 µM
[15] = second compound 1 µM, first compound 0.316 µM
[16] = second compound 1 µM, first compound 1 µM
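Note: viability read after seven days of compound exposure.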

For Nc1ccn(C2OC(CO)C(O)C2(F)F)c(=O)n1 (stereo not given) + CCn1c(-c2cc(N3CCN(C)CC3)cnc2C(C)OC)c2c3cc(ccc31)-c1csc(n1)CC(NC(=O)C1CC1C)C(=O)N1CCCC(N1)C(=O)OCC(C)(C)C2, the IC50 (second compound 0.000949 µM) was 17.9 nM, the IC50 (second compound 0.003 µM) was 11.5 nM and the IC50 (second compound 0.00949 µM) was under 3.16 nM. For the same molecule, the IC50 (second compound 0.03 µM) was under 3.16 nM, the IC50 (second compound 0.0949 µM) was under 3.16 nM and the IC50 (second compound 0.3 µM) was under 3.16 nM. The viability, T/C (second compound 0.000949 µM, first compound 0.00316 µM) was 83.4%, the viability, T/C (second compound 0.000949 µM, first compound 0.01 µM) was 73.4% and the viability, T/C (second compound 0.000949 µM, first compound 0.0316 µM) was 27.1%. For the same molecule, the viability, T/C (second compound 0.000949 µM, first compound 0.1 µM) was 3.62%, the viability, T/C (second compound 0.000949 µM, first compound 0.316 µM) was 1.6% and the viability, T/C (second compound 0.000949 µM, first compound 1 µM) was 2.63%. For the same molecule, the viability, T/C (second compound 0.003 µM, first compound 0.00316 µM) was 64.4%, the viability, T/C (second compound 0.003 µM, first compound 0.01 µM) was 54% and the viability, T/C (second compound 0.003 µM, first compound 0.0316 µM) was 20.3%. It also gave a viability, T/C (second compound 0.003 µM, first compound 0.1 µM) of 3.76%, a viability, T/C (second compound 0.003 µM, first compound 0.316 µM) of 1.56% and a viability, T/C (second compound 0.003 µM, first compound 1 µM) of 1.61%. The viability, T/C (second compound 0.00949 µM, first compound 0.00316 µM) was 37.1%, the viability, T/C (second compound 0.00949 µM, first compound 0.01 µM) was 36.2% and the viability, T/C (second compound 0.00949 µM, first compound 0.0316 µM) was 16.3%. It also gave a viability, T/C (second compound 0.00949 µM, first compound 0.1 µM) of 5.56%, a viability, T/C (second compound 0.00949 µM, first compound 0.316 µM) of 2.02% and a viability, T/C (second compound 0.00949 µM, first compound 1 µM) of 1.82%. The viability, T/C (second compound 0.03 µM, first compound 0.00316 µM) was 19%, the viability, T/C (second compound 0.03 µM, first compound 0.01 µM) was 22.7% and the viability, T/C (second compound 0.03 µM, first compound 0.0316 µM) was 15.8%. For the same molecule, the viability, T/C (second compound 0.03 µM, first compound 0.1 µM) was 7.32%, the viability, T/C (second compound 0.03 µM, first compound 0.316 µM) was 2.39% and the viability, T/C (second compound 0.03 µM, first compound 1 µM) was 1.81%. The viability, T/C (second compound 0.0949 µM, first compound 0.00316 µM) was 15.9%, the viability, T/C (second compound 0.0949 µM, first compound 0.01 µM) was 18.9% and the viability, T/C (second compound 0.0949 µM, first compound 0.0316 µM) was 13.9%. The viability, T/C (second compound 0.0949 µM, first compound 0.1 µM) was 11.8%, the viability, T/C (second compound 0.0949 µM, first compound 0.316 µM) was 4.42% and the viability, T/C (second compound 0.0949 µM, first compound 1 µM) was 2.61%. For the same molecule, the viability, T/C (second compound 0.3 µM, first compound 0.00316 µM) was 14.3%, the viability, T/C (second compound 0.3 µM, first compound 0.01 µM) was 16.6% and the viability, T/C (second compound 0.3 µM, first compound 0.0316 µM) was 16.6%. The viability, T/C (second compound 0.3 µM, first compound 0.1 µM) was 12.6%, the viability, T/C (second compound 0.3 µM, first compound 0.316 µM) was 7.82% and the viability, T/C (second compound 0.3 µM, first compound 1 µM) was 3.72%.
Work on Nc1ccn(C2OC(CO)C(O)C2(F)F)c(=O)n1 (stereo not given) + C=CC(=O)N1CCN(c2nc(OCC3CCCN3C)nc3c(F)c(-c4nc(N)cc(C)c4C(F)(F)F)c(Cl)cc23)C(C)C1 yielded an IC50 (second compound 0.00316 µM) of 23.7 nM, an IC50 (second compound 0.01 µM) of 34.4 nM and an IC50 (second compound 0.0316 µM) of 25.4 nM. For the same molecule, the IC50 (second compound 0.1 µM) was 21.7 nM, the IC50 (second compound 0.316 µM) was 23.1 nM and the IC50 (second compound 1 µM) was 20 nM. For the same molecule, the viability, T/C (second compound 0.00316 µM, first compound 0.00316 µM) was 89.9%, the viability, T/C (second compound 0.00316 µM, first compound 0.01 µM) was 89.7% and the viability, T/C (second compound 0.00316 µM, first compound 0.0316 µM) was 36.7%. The viability, T/C (second compound 0.00316 µM, first compound 0.1 µM) was 3.04%, the viability, T/C (second compound 0.00316 µM, first compound 0.316 µM) was 1.74% and the viability, T/C (second compound 0.00316 µM, first compound 1 µM) was 2.04%. It also gave a viability, T/C (second compound 0.01 µM, first compound 0.00316 µM) of 90.6%, a viability, T/C (second compound 0.01 µM, first compound 0.01 µM) of 87.7% and a viability, T/C (second compound 0.01 µM, first compound 0.0316 µM) of 53.7%. The viability, T/C (second compound 0.01 µM, first compound 0.1 µM) was 3.4%, the viability, T/C (second compound 0.01 µM, first compound 0.316 µM) was 1.89% and the viability, T/C (second compound 0.01 µM, first compound 1 µM) was 1.3%. It also gave a viability, T/C (second compound 0.0316 µM, first compound 0.00316 µM) of 88.7%, a viability, T/C (second compound 0.0316 µM, first compound 0.01 µM) of 86.3% and a viability, T/C [1] of 41.4%. For the same molecule, the viability, T/C [2] was 4.87%, the viability, T/C [3] was 1.41% and the viability, T/C [4] was 1.39%. The viability, T/C (second compound 0.1 µM, first compound 0.00316 µM) was 96.5%, the viability, T/C (second compound 0.1 µM, first compound 0.01 µM) was 82.5% and the viability, T/C [5] was 34.6%. It also gave a viability, T/C [6] of 2.56%, a viability, T/C [7] of 1.84% and a viability, T/C [8] of 1.83%. For the same molecule, the viability, T/C (second compound 0.316 µM, first compound 0.00316 µM) was 89.9%, the viability, T/C (second compound 0.316 µM, first compound 0.01 µM) was 82.8% and the viability, T/C [9] was 37.8%. For the same molecule, the viability, T/C [10] was 4.66%, the viability, T/C [11] was 1.55% and the viability, T/C [12] was 1.83%. It also gave a viability, T/C (second compound 1 µM, first compound 0.00316 µM) of 93%, a viability, T/C (second compound 1 µM, first compound 0.01 µM) of 80% and a viability, T/C [13] of 30.3%. The viability, T/C [14] was 4.7%, the viability, T/C [15] was 1.55% and the viability, T/C [16] was 1.67%.
In the case of O=C(c1ccc(F)c(F)c1Nc1ccc(I)cc1F)N1CC(O)([C@@H]2CCCCN2)C1, the viability, T/C (compound 0.00316 µM) is reported as 99.8% and 99.4% and 102% (2×), the viability, T/C (compound 0.01 µM) is reported as 93.1% [middle of 4 runs] and the viability, T/C (compound 0.316 µM) is reported as 48.7% [middle of 4 runs]. The viability, T/C (compound 1 µM) was 27.1% [middle of 4 runs].
Work on CC(Nc1ccc2c(c1)OCCn1cc(N3C(=O)OCC3C(F)F)nc1-2)C(N)=O (stereo not given) + C#Cc1c(F)ccc2cc(O)cc(-c3ncc4c(N5CC6CCC(C5)N6)nc(OCC56CCCN5CC(F)C6)nc4c3F)c12 yielded an IC50 (second compound 0.0316 µM) of 457 nM, an IC50 (second compound 0.1 µM) of 375 nM and an IC50 (second compound 0.316 µM) of 297 nM. It also gave an IC50 (second compound 1 µM) of 174 nM, an IC50 (second compound 3.16 µM) of 57.7 nM and an IC50 (second compound 10 µM) of under 31.6 nM. The viability, T/C [1] was 96.3%, the viability, T/C [2] was 73.7% and the viability, T/C [3] was 59.3%. For the same molecule, the viability, T/C [4] was 35.5%, the viability, T/C (second compound 0.0316 µM, first compound 3.16 µM) was 24.5% and the viability, T/C (second compound 0.0316 µM, first compound 10 µM) was 16.1%. For the same molecule, the viability, T/C [5] was 96.4%, the viability, T/C [6] was 76.6% and the viability, T/C [7] was 50%. The viability, T/C [8] was 36.3%, the viability, T/C (second compound 0.1 µM, first compound 3.16 µM) was 22.8% and the viability, T/C (second compound 0.1 µM, first compound 10 µM) was 15%. The viability, T/C [9] was 91.2%, the viability, T/C [10] was 72.9% and the viability, T/C [11] was 46.2%. The viability, T/C [12] was 32.6%, the viability, T/C (second compound 0.316 µM, first compound 3.16 µM) was 23.2% and the viability, T/C (second compound 0.316 µM, first compound 10 µM) was 15%. It also gave a viability, T/C [13] of 89.9%, a viability, T/C [14] of 59.5% and a viability, T/C [15] of 39.6%. It also gave a viability, T/C [16] of 25.1%, a viability, T/C (second compound 1 µM, first compound 3.16 µM) of 20% and a viability, T/C (second compound 1 µM, first compound 10 µM) of 10.9%. It also gave a viability, T/C (second compound 3.16 µM, first compound 0.0316 µM) of 63%, a viability, T/C (second compound 3.16 µM, first compound 0.1 µM) of 36.7% and a viability, T/C (second compound 3.16 µM, first compound 0.316 µM) of 26.6%. For the same molecule, the viability, T/C (second compound 3.16 µM, first compound 1 µM) was 18.2%, the viability, T/C (second compound 3.16 µM, first compound 3.16 µM) was 12.2% and the viability, T/C (second compound 3.16 µM, first compound 10 µM) was 8.25%. It also gave a viability, T/C (second compound 10 µM, first compound 0.0316 µM) of 41.2%, a viability, T/C (second compound 10 µM, first compound 0.1 µM) of 22.2% and a viability, T/C (second compound 10 µM, first compound 0.316 µM) of 21.3%. It also gave a viability, T/C (second compound 10 µM, first compound 1 µM) of 15.4%, a viability, T/C (second compound 10 µM, first compound 3.16 µM) of 8.8% and a viability, T/C (second compound 10 µM, first compound 10 µM) of 3.28%.
